Source: the supplement of paper PMC10883282

Experiments:
Experiment in all cases: relative viability vs DMSO control (72 h) (fraction); higher = more viable cells
[1] = test system: SW872
Method in brief: (§1)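 Sarcoma cell lines were seeded in 384-well plates at densities set to reach 80–90% confluence. After 24 h, 2.5 µl of serially diluted compound was added (source plates 10 mM to 0.0002 mM), and plates were held 72 h at 37 °C, 5% CO2, with 0.1% DMSO vehicle and a 5 µM positive control. Relative viability came from ATPLite readings as percent growth, averaged over up to triplicate wells. Data were rescaled so full viability equals 1 and none equals 0.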

[2] = test system: SW684
Method in brief: as §1

[3] = test system: SW982
Method in brief: as §1

[4] = test system: A204
Method in brief: as §1

[5] = test system: KHOS-NP
Method in brief: as §1

[6] = test system: RD-ES
Method in brief: as §1

[7] = test system: SK-LMS-1
Method in brief: as §1

[8] = test system: G401
Method in brief: as §1

[9] = test system: VA-ES-BJ
Method in brief: as §1

[10] = test system: SK-ES-1
Method in brief: as §1

[11] = test system: HS729
Method in brief: as §1

[12] = test system: HT1080
Method in brief: as §1

Cc1cc2c(F)c(Oc3ncnn4cc(OC[C@@H](C)OC(=O)[C@H](C)N)c(C)c34)ccc2[nH]1 [Brivanib_alaninate]
Settings | relative viability
[1], 0.00017 µM | 0.98
[1], 0.00051 µM | 0.967
[1], 0.00152 µM | 0.991
[1], 0.00457 µM | 0.988
[1], 0.01372 µM | 0.968
[1], 0.04115 µM | 0.973
[1], 0.1235 µM | 0.986
[1], 0.3704 µM | 1.02
[1], 1.111 µM | 1.04
[1], 3.333 µM | 1.05
[1], 10 µM | 1.03
[2], 0.00017 µM | 1.15
[2], 0.00051 µM | 1.15
[2], 0.00152 µM | 1.17
[2], 0.00457 µM | 1.14
[2], 0.01372 µM | 1.08
[2], 0.04115 µM | 1.07
[2], 0.1235 µM | 1.09
[2], 0.3704 µM | 1.17
[2], 1.111 µM | 1.141
[2], 3.333 µM | 1.13
[2], 10 µM | 1.19
[3], 0.00017 µM | 1.05
[3], 0.00051 µM | 1.03
[3], 0.00152 µM | 1.04
[3], 0.00457 µM | 1.04
[3], 0.01372 µM | 1.05
[3], 0.04115 µM | 1.05
[3], 0.1235 µM | 1.06
[3], 0.3704 µM | 1.04
[3], 1.111 µM | 1.09
[3], 3.333 µM | 1.08
[3], 10 µM | 1.12
[4], 0.00017 µM | 1.05
[4], 0.00051 µM | 1.05
[4], 0.00152 µM | 1.07
[4], 0.00457 µM | 1.11
[4], 0.01372 µM | 1.08
[4], 0.04115 µM | 1.04
[4], 0.1235 µM | 1.03
[4], 0.3704 µM | 1.05
[4], 1.111 µM | 0.999
[4], 3.333 µM | 0.958
[4], 10 µM | 0.567
[5], 0.00017 µM | 1.04
[5], 0.00051 µM | 1.05
[5], 0.00152 µM | 1.05
[5], 0.00457 µM | 1.06
[5], 0.01372 µM | 1.059
[5], 0.04115 µM | 1.07
[5], 0.1235 µM | 1.03
[5], 0.3704 µM | 1.03
[5], 1.111 µM | 1.02
[5], 3.333 µM | 0.917
[5], 10 µM | 0.6654
[6], 0.00017 µM | 0.953
[6], 0.00051 µM | 0.9804
[6], 0.00152 µM | 0.983
[6], 0.00457 µM | 0.983
[6], 0.01372 µM | 0.996
[6], 0.04115 µM | 0.989
[6], 0.1235 µM | 0.962
[6], 0.3704 µM | 1
[6], 1.111 µM | 0.987
[6], 3.333 µM | 0.9601
[6], 10 µM | 0.926
[7], 0.00017 µM | 0.967
[7], 0.00051 µM | 0.995
[7], 0.00152 µM | 0.978
[7], 0.00457 µM | 1.01
[7], 0.01372 µM | 1.01
[7], 0.04115 µM | 0.987
[7], 0.1235 µM | 0.989
[7], 0.3704 µM | 0.998
[7], 1.111 µM | 1
[7], 3.333 µM | 0.606
[7], 10 µM | 0.512
[8], 0.00017 µM | 0.968
[8], 0.00051 µM | 0.967
[8], 0.00152 µM | 1
[8], 0.00457 µM | 1.01
[8], 0.01372 µM | 0.974
[8], 0.04115 µM | 0.995
[8], 0.1235 µM | 0.982
[8], 0.3704 µM | 0.976
[8], 1.111 µM | 1
[8], 3.333 µM | 0.953
[8], 10 µM | 0.8674
[9], 0.00017 µM | 1.02
[9], 0.00051 µM | 1.02
[9], 0.00152 µM | 1.03
[9], 0.00457 µM | 1.03
[9], 0.01372 µM | 1.04
[9], 0.04115 µM | 0.984
[9], 0.1235 µM | 1.02
[9], 0.3704 µM | 1.04
[9], 1.111 µM | 1.07
[9], 3.333 µM | 1.03
[9], 10 µM | 0.983
[10], 0.00017 µM | 1.07
[10], 0.00051 µM | 1.07
[10], 0.00152 µM | 1.06
[10], 0.00457 µM | 1.05
[10], 0.01372 µM | 1.05
[10], 0.04115 µM | 1.03
[10], 0.1235 µM | 1.06
[10], 0.3704 µM | 1.05
[10], 1.111 µM | 1.044
[10], 3.333 µM | 0.991
[10], 10 µM | 0.921
[11], 0.00017 µM | 0.943
[11], 0.00051 µM | 0.893
[11], 0.00152 µM | 0.914
[11], 0.00457 µM | 0.878
[11], 0.01372 µM | 0.9
[11], 0.04115 µM | 0.897
[11], 0.1235 µM | 0.877
[11], 0.3704 µM | 0.898
[11], 1.111 µM | 0.923
[11], 3.333 µM | 0.891
[11], 10 µM | 0.782
[12], 0.00017 µM | 1.05
[12], 0.00051 µM | 1.04
[12], 0.00152 µM | 1.06
[12], 0.00457 µM | 1.03
[12], 0.01372 µM | 1.04
[12], 0.04115 µM | 1.03
[12], 0.1235 µM | 1.04
[12], 0.3704 µM | 1.054
[12], 1.111 µM | 1.047
[12], 3.333 µM | 0.99
[12], 10 µM | 0.978
